Results from US20160175249A1, “Liposomes Containing Oligopeptide Fragments of Myelin Basic Protein, a Pharmaceutical Composition and a Method for Treatment of Multiple Sclerosis” (LIPOXEN TECHNOLOGIES LIMITED, priority 2009, published 2016).
“Also recorded” adds a separate entry of the source.

Key:
[1] = tested on: experimental autoimmune encephalomyelitis (EAE) in DA rats; test: EAE in DA rats treated with MBP peptides in mannosylated SUV liposomes (Example 10); format: in vivo
Description: All animal studies were carried out in animal facilities of Assaf Harofeh Medical Center (Zerifin, Israel) using standard approved practices for animal care. Induction of EAE was performed in 8-9 weeks Dark Agouti (DA) female rats. Briefly, rats were injected intradermally at the base of the tail with a total volume of 200 μl of inoculum, containing […] of MBP(63-81) (ANASPEC), in saline mixed (1:1) with CFA, (incomplete Freund's adjuvant (IFA), Sigma), and 1 mg MT (strain H37 RA; Difco Laboratories, Detroit, Mich.). Animals developing symptoms of MS were included to the study. Rats were treated with different liposomes formulations (Table 3), copaxone, or placebo (vehicle) under similar conditions for 6 days. All formulations were administrated by one subcutaneous injection per day. Animals were followed up till day 28th post EAE induction. Clinical signs score was performed daily during all study periods. Score gradation was the following: 0—Normal 1—tail weakness, 2—hind leg weakness or paralysis, 3—hind leg paralysis, dragging hind limbs, 4—complete paralysis, unable to move, 5—death.
Liposomes were assembled from a mixture of egg phosphatidylcholine (PC) and one molar percent mannosylated DOG (ManDOG) (Durova OM, supra). Assembly of SUV liposomes was performed as illustrated in FIG. 3: (i) formation of irregular lipid layers during evaporation of organic solvent, followed by re-hydration leading to the multi-layer multilamellar vesicle (MLV) liposomes formation; (ii) high-pressure homogenization resulting in formation of empty SUV; (iii) freeze drying of SUV liposomes with peptides—at this stage peptides are located between collapsed SUV liposomes; and (iv) encapsulation of peptides during second re-hydration into the SUV liposomes with an average diameter of approximately 60-100 nm, containing 1.0% mannose residues on their surface. Four formulations were used for this study: each B cell epitope MBP peptide (MBP1, MBP2, and MBP3) individually and a 1:1:1 mixture (by mass) of all three peptides.
Small unilamellar vesicles (SUV) were prepared from egg phosphatidylcholine (PC) and mannosylated DOG (Espuelas S. et al., Synthesis of an amphiphilic tetraantennary mannosyl conjugate and incorporation into liposome carriers, 2003 Bioorg Med Chem Lett., August 4; 13(15):2557-60, the contents of which are hereby incorporated by reference in their entirety for all purposes) (1:100 molar ratio) by high pressure homogenization (Durova OM, supra). Briefly, lipid mixture (100 mg/ml) in CHCl3 was dried under vacuum, further re-suspended in Milli-Q water to a final lipid concentration 50 mg/ml, followed by high-pressure homogenization (20,000 psi). Resulting SUV were mixed with peptides (lipid to peptide ratio 330:1) together with excess sugar (lactose to lipid ratio 3:1) with subsequent freeze-drying. Following rehydration under controlled conditions, the resulting SUV liposomes were washed by centrifugation to remove non-incorporated materials. The washed pellets were re-suspended in PBS to the required dose volume. Peptide incorporation was estimated on the basis of reversed-phase HPLC using linear gradient of acetonitrile applied on C18 column. The z-average diameter and zeta potential of liposomes were measured on a Brookhaven ZetaPlus zetasizer at 25° C. by diluting […] of the dispersion to the required volume with 1 mM PBS or appropriate media.
To test the therapeutic potential of the four formulations, DA rates presenting with induced EAE were subcutaneously injected with one of the four mannosylated liposomal formulations, copaxone (positive control), free (un-encapsulated) MBPI peptide (negative control), and empty mannosylated liposomes (vehicle control; Table 3).
Treatment of each rat was initiated at the first sign of EAE clinical manifestation. […]

[2] = tested on: experimental allergic encephalomyelitis (EAE) in DA rats; test: Treatment of EAE in DA rats with liposomally encapsulated MBP peptides (Example 5); format: in vivo; conditions: 150 μg per animal daily subdermally days 6-11, score 0-5
Description: To induce experimental allergic encephalomyelitis (EAE) in DA rats having a mass of 220-250 g ([…]), 10 μg of myelin basic protein encephalogenic peptide fragment ARTTHYGSLPQKSQRSQ (SEQ ID NO:4; Anaspec, US) emulsified in Freund's complete adjuvant (Difco, US) at a concentration of 10% (m/v) was subdermally injected into the forepaw. The rats were weighted and monitored for EAE neurological symptoms daily. The EAE symptom profile of each rate was scored according to the following scale: (0)—absence of EAE symptoms; (1)—decrease in tail tonicity; (2)—decrease in righting reflex; (3)—paresis; (4)—full paralysis; and (5)—agony or death. Intermediary symptoms were scored by increasing or decreasing the value by 0.5 units. Six days after EAE induction, animals were randomly distributed into several groups (12 animals each).
Between days six and eleven after induction, rats in each respective group were subdermally injected with the liposomal preparation described in Example 2 (emulsified in phosphate saline solution, pH 7.4), a positive control preparation of glatiramer acetate (GA; copaxone, Teva Pharmaceutical Industries Ltd, Israel), a prototype peptide: DENPVVIIFFKNIVTPRT (SEQ ID NO:5), or a buffered phosphate saline solution (pH 7.4) placebo. The peptide, Glatiramer acetate, and liposomal preparations were formulated immediately prior to administration using buffered phosphate saline solution (pH 7.4). 0.1 mL of each composition was administered daily at a concentration of 150 μg per animal.

glatiramer acetate [copaxone]
mean disease score course (FIG. 4) ([1]; 6 daily s.c. injections from first clinical sign): EAE amelioration rate similar to treatment with the MBP1/2/3 SUV formulation; also recorded: did not fully recover from EAE after the initial attack
Mortality ([1]; one s.c. injection per day, 6 injections, deaths/N): 0/12
Median Cumulative Disease Score ([1]; one s.c. injection per day, 6 injections, doses per Table 3): 18.5
Median Maximal Disease Score (IQR) ([1]; one s.c. injection per day, 6 injections, doses per Table 3, score 0-5): 2 (1.25)^1
Evaluation of EAE symptom intensity, average ([2]; day 0 after EAE induction): 0.00
Evaluation of EAE symptom intensity, average ([2]; day 1 after EAE induction): 0.00
Evaluation of EAE symptom intensity, average ([2]; day 2 after EAE induction): 0.00
Evaluation of EAE symptom intensity, average ([2]; day 3 after EAE induction): 0.00
Evaluation of EAE symptom intensity, average ([2]; day 4 after EAE induction): 0.00
Evaluation of EAE symptom intensity, average ([2]; day 5 after EAE induction): 0.00
Evaluation of EAE symptom intensity, average ([2]; day 6 after EAE induction): 0.00
Evaluation of EAE symptom intensity, average ([2]; day 7 after EAE induction): 0.00
Evaluation of EAE symptom intensity, average ([2]; day 8 after EAE induction): 0.50
Evaluation of EAE symptom intensity, average ([2]; day 9 after EAE induction): 1.67
Evaluation of EAE symptom intensity, average ([2]; day 10 after EAE induction): 2.17
Evaluation of EAE symptom intensity, average ([2]; day 11 after EAE induction): 2.25
Evaluation of EAE symptom intensity, average ([2]; day 12 after EAE induction): 2.25
Evaluation of EAE symptom intensity, average ([2]; day 13 after EAE induction): 2.83
Evaluation of EAE symptom intensity, average ([2]; day 14 after EAE induction): 2.75
Evaluation of EAE symptom intensity, average ([2]; day 15 after EAE induction): 2.33
Evaluation of EAE symptom intensity, average ([2]; day 16 after EAE induction): 2.08
Evaluation of EAE symptom intensity, average ([2]; day 17 after EAE induction): 2.17
Evaluation of EAE symptom intensity, average ([2]; day 18 after EAE induction): 2.17
Evaluation of EAE symptom intensity, average ([2]; day 19 after EAE induction): 1.75
Evaluation of EAE symptom intensity, average ([2]; day 20 after EAE induction): 1.67
Evaluation of EAE symptom intensity, average ([2]; day −1 after EAE induction): 0.00
